Laboratory results from patent US20250041434A1, “CEA ASSAY FOR PATIENT SELECTION IN CANCER THERAPY” (SANOFI, priority 2021, published 2025).

What was measured:
CEACAM6 = biological target: T1, CEACAM6 (Homo sapiens, UniProt P40199); test: recognition of other CEACAMs; format: binding
T1 sequence (P40199 35-320): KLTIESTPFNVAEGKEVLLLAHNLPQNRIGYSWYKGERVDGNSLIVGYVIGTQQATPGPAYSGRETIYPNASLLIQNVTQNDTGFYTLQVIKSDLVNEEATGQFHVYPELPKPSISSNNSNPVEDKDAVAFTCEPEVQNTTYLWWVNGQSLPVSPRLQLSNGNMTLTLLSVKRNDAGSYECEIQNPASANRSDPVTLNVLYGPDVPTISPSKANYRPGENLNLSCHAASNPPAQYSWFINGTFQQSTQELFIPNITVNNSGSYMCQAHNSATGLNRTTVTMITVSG

CEACAM1 = biological target: T2, CEACAM1 (Homo sapiens, UniProt P13688); test: recognition of other CEACAMs; format: binding
T2 sequence (P13688 35-526): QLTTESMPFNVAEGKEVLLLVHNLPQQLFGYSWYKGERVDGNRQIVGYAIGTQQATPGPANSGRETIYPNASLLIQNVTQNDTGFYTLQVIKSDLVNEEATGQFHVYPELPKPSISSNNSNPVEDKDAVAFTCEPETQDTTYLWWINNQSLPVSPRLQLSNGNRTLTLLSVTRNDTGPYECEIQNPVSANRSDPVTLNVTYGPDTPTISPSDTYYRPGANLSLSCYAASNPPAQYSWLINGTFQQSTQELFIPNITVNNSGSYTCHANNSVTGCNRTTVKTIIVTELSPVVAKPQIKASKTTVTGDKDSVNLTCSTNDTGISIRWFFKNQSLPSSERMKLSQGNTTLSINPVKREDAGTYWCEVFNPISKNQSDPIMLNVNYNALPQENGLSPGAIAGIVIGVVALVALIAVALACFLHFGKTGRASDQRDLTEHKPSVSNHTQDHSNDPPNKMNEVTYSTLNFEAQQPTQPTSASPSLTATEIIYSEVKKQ

[1] = preliminary experiments on effector activity
[2] = system: human primary colon and stomach tumors; settings: mice bearing human primary colon and stomach tumors; see WO 2014/079886; cited from earlier work
cells expressing CEACAM5 = settings: see WO 2014/079886; cited from earlier work
[3] = system: NSQ NSCLC with high CEACAM5 expression; test: TED13751 clinical study, tumor response (RECIST 1.1) in NSQ NSCLC high CEACAM5 expressers; format: in vivo, human; settings: for anti-tumor activity, in words: participants heavily pre-treated for NSQ NSCLC, study TED13751
Procedure: In this cohort of NSQ NSCLC participants with high CEACAM5 expression on tumor (≥2+ in intensity in ≥50%) expansion cohort NSQ NSCLC, 10 out of 13 responding participants had high baseline circulating CEA (≥100 ng/mL).
Expression of CEACAM5 on tumor was assessed using CEACAM5 IHC test and circulating CEA and CEACAM5 assays for patients enrolled in clinical trial TED13751 (NCT02187848).
Circulating CEA was determined locally using the assay which was of routine use in the institution. In vitro diagnostic CEA assays measure CEA not claiming specificity for CEACAM5.
The study will be divided in […] parts: The Escalation Phase and the Expansion Phase.
The expansion phase will be conducted with every 2 weekly dosing schedule. During the Expansion Phase, the population to be treated will be restricted to patients with advanced diseases in colorectal cancer (CRC), NSQ NSCLC, small cell lung cancer (SCLC), and gastric adenocarcinoma (including signet-ring cell carcinoma subtype as well as esophago-gastric junction (EGJ) adenocarcinomas of the Siewert Types II and III). CEACAM5 expression of ≥2+ in intensity involving ≥50% of the tumor cell population will be documented during pre-screening on the most recent archival tissue sample and using local IHC evaluation for patients potentially eligible for study treatment in the gastric adenocarcinoma cohort. There are 2 independent NSQ NSCLC expansion phase cohorts: The first one (Lung cohort) includes patients with high CEACAM5 expression (≥2+ in intensity involving at least 50% of the tumor cell population). The second cohort (Lung bis cohort) will include patients that pre-screened positive at moderate intensity (≥2+ between ≥1% to <50% of the tumor cell population). The SCLC cohort includes patients with CEACAM5 expression of ≥2+ in intensity involving ≥1% of the tumor cell population. […] Full screening will only be done for archival cases meeting the above definition. No CEACAM5 pre-screening is required for CRC patients potentially eligible for the CRC expansion cohort. The level of CEACAM5 expression will be documented essentially retrospectively and centrally on both archival and fresh (baseline sample) tumor tissues. Confirmation of CEACAM5 tumor expression will be done retrospectively in a central laboratory on fresh tumor tissue collected at baseline (mandatory biopsy in the Expansion Phase only, on all patients with CRC and gastric cancer, and on NSQ NSCLC as well as SCLC patients with a lesion amenable to biopsy). If sufficient archived tumor material is available, a central evaluation will also be done retrospectively to gain knowledge on the variability in evaluation of the expression. The results of the retrospective analyses will have no impact on patients' treatment. It will be used for the better interpretation of the overall response, and as the baseline for comparison with CEACAM5 expression upon progression (exploration for loss of CEACAM5 as mechanism of acquired resistance).
In the Expansion cohorts, the assessment of response to tusamitamab ravtansine is a primary objective. All patients treated in the Expansion Phase must have at least one measurable lesion for inclusion. Tumor assessment will be made at least every 4 cycles. Decision to pursue treatment will be based on the response evaluation made by the Investigator, however, measures of lesions will be collected in the electronic case report forms for a determination of response by Sponsor. A partial or complete response must be confirmed on a second examination done at least 4 weeks apart, in order to be documented as a confirmed response to therapy.
The RECIST v1.1 criteria will be followed for assessment of tumor response.

[4] = biological target: T3, A3B3 domain of human CEACAM5 (Homo sapiens, UniProt P06731); test: domain specificity of binding
T3 sequence (P06731 499-685 limits assumed): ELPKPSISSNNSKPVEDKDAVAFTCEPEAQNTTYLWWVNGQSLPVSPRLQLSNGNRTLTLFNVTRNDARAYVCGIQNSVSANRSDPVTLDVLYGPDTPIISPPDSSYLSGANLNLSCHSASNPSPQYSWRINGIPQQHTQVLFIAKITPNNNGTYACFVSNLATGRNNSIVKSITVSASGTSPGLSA

[5] = Phase 1/2 study, heavily pre-treated high CEACAM5 expressers for NSCLC

## Tusamitamab ravtansine: immunoconjugate ADC combining humanized anti-CEACAM5 antibody tusamitamab and maytansinoid DM4 via SPDB linker; CAS Registry No. 2254086-60-5
CEACAM6
  recognition of CEACAM6: does not recognize
CEACAM1
  recognition of CEACAM1: does not recognize
[1]
  effector activity: devoid of effector activity
[2]
  tumor growth inhibition in vivo: markedly inhibit tumor growth
Cells expressing CEACAM5
  internalization into cells expressing CEACAM5 after binding: capable of being internalized
[3]; 100 mg/m^2 Q2W, 64 participants, RECIST 1.1
  participants who had PR: 13
[3]; 100 mg/m^2 Q2W, 64 participants, RECIST 1.1, 95% CI: 12.27% to 31.71%
  overall response rate: 20.3%
[3]; [5]
  Duration of Response (DoR), in words: competitive
  Overall Response Rate (ORR), in words: competitive
[3]; baseline circulating CEA <5 μg/L (9 patients), 100 mg/m^2 Q2W
  Responses (%): 22.2%
[3]; baseline circulating CEA <100 μg/L (37 patients), 100 mg/m^2 Q2W
  Responses (%): 8.1%
[3]; baseline circulating CEA >3 μg/L (58 patients), 100 mg/m^2 Q2W
  Responses (%): 22.4%
[3]; baseline circulating CEA ≥5 μg/L (53 patients), 100 mg/m^2 Q2W
  Responses (%): 20.8%
[3]; baseline circulating CEA ≥100 μg/L (25 patients), 100 mg/m^2 Q2W
  Responses (%): 40.0%
[3]; high expressers cohort, 100 mg/m^2 Q2W
  share of the 13 responders with baseline circulating CEA level ≥100 μg/L: 77%
[3]
  anti-tumor activity, in words: encouraging anti-tumor activity
[3]; listed as tusamitamab ravtansine
  anti-tumor activity, in words: Encouraging preliminary anti-tumor activity
[4]
  binding to A3B3 domain of human CEACAM5: specifically binds
